US5500416A, “Percutaneous absorption promoting agent and dermatologic preparation containing the same” (priority 1987, dated 1996)

Test system: enucleated skin of a hairless mouse
Experiment: Drug permeability test by in vitro diffusion cell
Type: in vitro ADME
Conditions: pH 7.2
Procedure: A drug permeability test was conducted for amine oxide, which is the product of the present invention.
Pharmaceutical samples comprising the following composition were prepared.
For an evaluation of the percutaneous absorption promoting effect of a drug with the test substance, a drug permeability test was conducted by in vitro diffusion cell, using the enucleated skin of a hairless mouse. As the diffusion cell device, a vertical film type 2-compartment cell with a diffusion area of 2 cm^2 was employed. The whole skin layer at the back of a 10 to 15 weeks old male hairless mouse was enucleated and mounted on a diffusion cell. In the cell compartment on the medicament sample side, 2 ml of a medicament sample was placed, and 2 ml of a phosphate buffer phisiological saline (pH 7.2) was placed in the cell compartment on the receptor side, and the whole cell maintained at 32° C. in a thermostat tank while gently stirring both phases. After 24 hours, the receptor solution was sampled and the amount of the drug permeated by high performance chromatography to the receptor side quantitated.

SMILES | Drug permeability | Drug permeability (Table 5-1, hydroquinone 1.0%, test substance 0.1%, ethanol 20%, 24 hours, 32° C.)
CCCCCCCCCCCCCC[N+](C)(C)[O-] [Example 5-5, Dimethylmyristylamine oxide] | 11.8% | –
CCCCCCCCCCCCCCCCCC[N+]([O-])(CCO)CCO [Example 5-3, Dihyroxyethylstearylamine oxide] | 30.5% | –
CCCCCCCCCCCC[N+](C)(C)[O-] [Example 5-4, Dimethyllaurylamine oxide] | – | 9.4%
CCCCCCCCCCCCCCCCCC[N+](C)(C)[O-] [Example 5-1, Dimethylstearylamine oxide] | 44.0% | –
CCCCCCCCCCCCCCCCCCCCCC[N+](C)(C)[O-] [Example 5-2, Dimethylbehenylamine oxide] | 28.6% | –
